# Data from patent US20240122865A1, “Methods of Protecting RNA” (Pfizer Inc., priority 2021, published 2024).
# Test system: Chi18 model RNA
# Experiment: TapeStation Assay, Chi18 model RNA
# Type: biochemical, Trichoderma atroviride
# Parameters: Conc. chi18#1 / Conc. chi18#2: unit not given here
# Conditions: Chi18 RNA, 20 mM amino acids, 50 mM CAPS pH 11, 50° C. 15 min, vs Time 0
# Experimental: These assays were performed with amino acids and compared to a no-degradation baseline control to gauge degree of protection imparted by the amino acid. Multiple functional assay approaches were used where differing endpoints were measured including a droplet digital PCR (ddPCR) assay where intact RNA sequence was quantitated, a size exclusion base hydrolysis degradation assay that used a size exclusion column to determine the degree of degradation occurring to an mRNA construct, and finally, a TapeStation assay that utilizes capillary electrophoresis and optical detection to measure intact RNA. […] Affinity selection by mass spectrometry (ASMS), native electrospray ionization mass spectrometry (nESI-MS) and nuclear magnetic resonance (NMR) may be used as several complementary approaches to ascertain compound binding to RNA. The latter techniques utilize MS to measure mass of bound compound alone (ASMS), or mass of RNA and bound compound (nESI-MS). The nESI-MS and NMR studies may be conducted to provide direct analytical quantification of resulting complex via measurement of mass (nESI-MS) or chemical shifts (NMR). The ASMS experiment is conducted to determine saturation binding of the compound to RNA where resulting apparent binding constants (KD,App) may be generated. Further descriptions of the functional and binding assays are provided in the section below.
# In principle, samples are loaded to the instrument where electrophoresis separates component RNA's on the basis of mass, and subsequently analyzes these optically as they travel through the capillary.
# RNA samples were diluted to the appropriate concentration to fall within the linear range of detection for the RNA ScreenTape Assay. Model Chi18 or FgenL RNAs were diluted to 50 ng/μL in 50 mM CAPS buffer pH 11. Amino acid stocks were made up in 50 mM CAPS pH 11 and re-adjusted to >pH 11 after solubilization. […] The samples were aliquoted to PCR tubes for each time point (Time 0 or 15 minutes). Degradation reaction: Samples were incubated at 50° C. for 0 to 15 minutes in a thermocycler, removed at the appropriate time point and placed on ice. Time 0 samples remained on ice.
Compound,% Control N = 1,% Control N = 2
C[C@H](N)C(=O)O [Alanine],35.3%,51.4%
N=C(N)NCCC[C@H](N)C(=O)O [Arginine],5.2%,4.7%
NC(=O)C[C@H](N)C(=O)O [Asparagine],21.0%,26.7%
N[C@@H](CC(=O)O)C(=O)O [Aspartic acid],52.5%,53.5%
N[C@@H](CS)C(=O)O [Cysteine],4.5%,3.5%
N[C@@H](CCC(=O)O)C(=O)O [Glutamic acid],76.0%,94.5%
NC(=O)CC[C@H](N)C(=O)O [Glutamine],15.9%,17.8%
N[C@@H](CCC(=O)N[C@@H](CS)C(=O)NCC(=O)O)C(=O)O [Glutathione],29.3%,26.7%
NCC(=O)O [Glycine],42.0%,51.4%
N[C@@H](Cc1c[nH]cn1)C(=O)O [Histidine],3.0%,3.2%
O=C(O)[C@@H]1C[C@@H](O)CN1 [Hydroxyproline],17.3%,17.3%
CC[C@H](C)[C@H](N)C(=O)O [Isoleucine],19.3%,24.2%
CC(C)C[C@H](N)C(=O)O [Leucine],30.8%,31.9%
NCCCC[C@H](N)C(=O)O [Lysine],22.0%,15.5%
CSCC[C@H](N)C(=O)O [Methionine],49.7%,49.7%
N[C@@H](Cc1ccccc1)C(=O)O [Phenylalanine],17.2%,25.3%
O=C(O)[C@@H]1CCCN1 [Proline],37.0%,34.6%
N[C@@H](CO)C(=O)O [Serine],42.2%,42.2%
C[C@@H](O)[C@H](N)C(=O)O [Threonine],51.4%,40.8%
N[C@@H](Cc1c[nH]c2ccccc12)C(=O)O [Tryptophan],2.9%,2.9%
N[C@@H](Cc1ccc(O)cc1)C(=O)O [Tyrosine],31.9%,31.9%
CC(C)[C@H](N)C(=O)O [Valine],32.5%,32.5%

# Same assay, conditions: Chi18 RNA, 20 mM amino acids, 50 mM CAPS pH 11, 50° C. 15 min, vs Time 0, Avg N=2
row,Compound,% Control Avg.
1,C[C@H](N)C(=O)O [Alanine],43.3%
2,N=C(N)NCCC[C@H](N)C(=O)O [Arginine],4.9%
3,NC(=O)C[C@H](N)C(=O)O [Asparagine],23.8%
4,N[C@@H](CC(=O)O)C(=O)O [Aspartic acid],53.0%
5,N[C@@H](CS)C(=O)O [Cysteine],4.0%
6,N[C@@H](CCC(=O)O)C(=O)O [Glutamic acid],85.3%
7,NC(=O)CC[C@H](N)C(=O)O [Glutamine],16.8%
8,N[C@@H](CCC(=O)N[C@@H](CS)C(=O)NCC(=O)O)C(=O)O [Glutathione],28.0%
9,NCC(=O)O [Glycine],46.7%
10,N[C@@H](Cc1c[nH]cn1)C(=O)O [Histidine],3.1%
11,O=C(O)[C@@H]1C[C@@H](O)CN1 [Hydroxyproline],17.3%
12,CC[C@H](C)[C@H](N)C(=O)O [Isoleucine],21.8%
13,CC(C)C[C@H](N)C(=O)O [Leucine],31.4%
14,NCCCC[C@H](N)C(=O)O [Lysine],18.7%
15,CSCC[C@H](N)C(=O)O [Methionine],49.7%
16,N[C@@H](Cc1ccccc1)C(=O)O [Phenylalanine],21.3%
17,O=C(O)[C@@H]1CCCN1 [Proline],35.8%
18,N[C@@H](CO)C(=O)O [Serine],42.2%
19,C[C@@H](O)[C@H](N)C(=O)O [Threonine],46.1%
20,N[C@@H](Cc1c[nH]c2ccccc12)C(=O)O [Tryptophan],2.9%
21,N[C@@H](Cc1ccc(O)cc1)C(=O)O [Tyrosine],31.9%
22,CC(C)[C@H](N)C(=O)O [Valine],32.5%

# Same assay, conditions: intact Chi18 RNA after 15 min at 50° C., 20 mM amino acids in 50 mM CAPS pH 11, run #1
row,Compound,Conc. chi18#1
1,C[C@H](N)C(=O)O [Alanine],18.8
2,N=C(N)NCCC[C@H](N)C(=O)O [Arginine],2.78
3,NC(=O)C[C@H](N)C(=O)O [Asparagine],11.2
4,N[C@@H](CC(=O)O)C(=O)O [Aspartic acid],28
5,N[C@@H](CS)C(=O)O [Cysteine],2.39
6,N[C@@H](CCC(=O)O)C(=O)O [Glutamic acid],40.5
7,NC(=O)CC[C@H](N)C(=O)O [Glutamine],8.46
8,N[C@@H](CCC(=O)N[C@@H](CS)C(=O)NCC(=O)O)C(=O)O [Glutathione],15.6
9,NCC(=O)O [Glycine],22.4
10,N[C@@H](Cc1c[nH]cn1)C(=O)O [Histidine],1.58
11,O=C(O)[C@@H]1C[C@@H](O)CN1 [Hydroxyproline],9.2
12,CC[C@H](C)[C@H](N)C(=O)O [Isoleucine],10.3
13,CC(C)C[C@H](N)C(=O)O [Leucine],16.4
14,NCCCC[C@H](N)C(=O)O [Lysine],11.7
15,CSCC[C@H](N)C(=O)O [Methionine],26.5
16,N[C@@H](Cc1ccccc1)C(=O)O [Phenylalanine],9.19
17,O=C(O)[C@@H]1CCCN1 [Proline],19.7
18,N[C@@H](CO)C(=O)O [Serine],22.5
19,C[C@@H](O)[C@H](N)C(=O)O [Threonine],27.4
20,N[C@@H](Cc1c[nH]c2ccccc12)C(=O)O [Tryptophan],1.57
21,N[C@@H](Cc1ccc(O)cc1)C(=O)O [Tyrosine],17
22,CC(C)[C@H](N)C(=O)O [Valine],17.3

# Same assay, conditions: intact Chi18 RNA after 15 min at 50° C., 20 mM amino acids in 50 mM CAPS pH 11, run #2
row,Compound,Conc. chi18#2
1,C[C@H](N)C(=O)O [Alanine],27.2
2,N=C(N)NCCC[C@H](N)C(=O)O [Arginine],2.46
3,NC(=O)C[C@H](N)C(=O)O [Asparagine],14.1
4,N[C@@H](CC(=O)O)C(=O)O [Aspartic acid],28.3
5,N[C@@H](CS)C(=O)O [Cysteine],1.85
6,N[C@@H](CCC(=O)O)C(=O)O [Glutamic acid],50
7,NC(=O)CC[C@H](N)C(=O)O [Glutamine],9.42
8,N[C@@H](CCC(=O)N[C@@H](CS)C(=O)NCC(=O)O)C(=O)O [Glutathione],14.1
9,NCC(=O)O [Glycine],27.2
10,N[C@@H](Cc1c[nH]cn1)C(=O)O [Histidine],1.68
11,CC[C@H](C)[C@H](N)C(=O)O [Isoleucine],12.8
12,CC(C)C[C@H](N)C(=O)O [Leucine],16.9
13,NCCCC[C@H](N)C(=O)O [Lysine],8.18
14,N[C@@H](Cc1ccccc1)C(=O)O [Phenylalanine],13.4
15,O=C(O)[C@@H]1CCCN1 [Proline],18.3
16,C[C@@H](O)[C@H](N)C(=O)O [Threonine],21.6

# Test system: HEK-293T cell monolayer
# Experiment: not given
# Type: cell-based
# Conditions: not given
Compound,IVE of the Tris/Sucrose LNP formulation upon inclusion of glutamic acid,effect on in vitro expression (IVE) of the Tris/Sucrose LNP formulation
N[C@@H](CCC(=O)O)C(=O)O [Glutamic acid],70%,improved

# Test system: VSV G pseudotyped virus
# Experiment: not given
# Parameters: species or system BALB/c mice
# Conditions: mouse
row,Compound,stabilization as measured by functional immunogenic response in vivo
1,N[C@@H](CCC(=O)O)C(=O)O [Glutamic acid],significant stabilization
